Some test systems named below: UACC-62 melanoma; MCF7 breast; SK-MEL-28 melanoma; SNB-75 CNS; SK-OV-3 ovarian; HCT-116 colon; MALME-3M melanoma; TK-10 renal; SNB-19 CNS; DU-145 prostate; UACC-257 melanoma; SK-MEL-2 melanoma; SN12C renal.
Holding throughout (assay): NCI tumour cell line growth inhibition, 48 h

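These data come from cells grown in 96-well plates and exposed to compound for 48 hours at five concentrations. TGI marks complete inhibition of growth.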

Take `NC(=S)NNCC(=O)CC(O)(C(F)(F)F)C(F)(F)Cl` (stereo not drawn): the TGI with UACC-62 melanoma, with MCF7 breast, with SK-MEL-28 melanoma, in the experiment on SNB-75 CNS, with SK-OV-3 ovarian and with HCT-116 colon was above 100 µM each time. In addition, the TGI in the experiment on MALME-3M melanoma, in the experiment with TK-10 renal, with SNB-19 CNS, in the experiment with DU-145 prostate, with UACC-257 melanoma and in the experiment with SK-MEL-2 melanoma was above 100 µM in each case.

In the case of `O=C(/C=C/c1ccc(OCc2ccccc2)cc1)NCc1ccc(C(=O)NCCc2ccccc2)cc1`, the TGI in the experiment on UACC-62 melanoma, with MCF7 breast, with SK-MEL-28 melanoma, in the experiment with SNB-75 CNS, in the experiment with SK-OV-3 ovarian and in the experiment with HCT-116 colon was above 100 µM in each case. Moreover, the TGI in the experiment with MALME-3M melanoma, in the experiment on SN12C renal, in the experiment on TK-10 renal, with SNB-19 CNS, with DU-145 prostate and with UACC-257 melanoma was above 100 µM in each case. The same compound yielded a TGI in the experiment with SK-MEL-2 melanoma above 100 µM.

Consider `CSc1c(C(C)=O)c(O)n(-c2ccc(C)cc2)c(=O)c1C#N`, for which the TGI in the experiment on UACC-62 melanoma, in the experiment on MCF7 breast, with SK-MEL-28 melanoma, with SNB-75 CNS, in the experiment with SK-OV-3 ovarian and in the experiment with HCT-116 colon was above 100 µM throughout. Further, the TGI in the experiment with MALME-3M melanoma, in the experiment on SN12C renal, in the experiment on TK-10 renal, with SNB-19 CNS, with DU-145 prostate and in the experiment on UACC-257 melanoma was above 100 µM throughout. Besides, in the experiment on SK-MEL-2 melanoma, the TGI was above 100 µM.

As for `NC1=Nc2cc(C(F)(F)F)ccc2Sc2nc3ccccc3n21`, the TGI in the experiment on UACC-62 melanoma was above 100 µM; with MCF7 breast it was above 100 µM; in the experiment on SK-MEL-28 melanoma it was above 100 µM; with SNB-75 CNS it was 71.2 µM; in the experiment with SK-OV-3 ovarian, above 100 µM; in the experiment on HCT-116 colon it was above 100 µM. The TGI with MALME-3M melanoma, in the experiment with SN12C renal, in the experiment with TK-10 renal, with SNB-19 CNS, in the experiment with DU-145 prostate and in the experiment with UACC-257 melanoma was above 100 µM throughout. The compound also registered a TGI in the experiment on SK-MEL-2 melanoma above 100 µM.

With `CCCOC(=O)c1cc(O)c(O)c(O)c1`, the TGI in the experiment on UACC-62 melanoma was above 100 µM; in the experiment with MCF7 breast it was above 100 µM; in the experiment with SK-MEL-28 melanoma, above 100 µM; in the experiment on SNB-75 CNS, above 100 µM; in the experiment with SK-OV-3 ovarian, above 100 µM; in the experiment on HCT-116 colon it was 45.3 µM. Besides, the TGI in the experiment on MALME-3M melanoma, with SN12C renal, with TK-10 renal, with SNB-19 CNS, in the experiment on DU-145 prostate and in the experiment with UACC-257 melanoma was above 100 µM each time. The compound also yielded a TGI with SK-MEL-2 melanoma above 100 µM.

On to `CNC(=O)OCc1cnc([N+](=O)[O-])n1C`, for which the TGI with MCF7 breast, in the experiment on SK-MEL-28 melanoma, with SNB-75 CNS, in the experiment with HCT-116 colon, with MALME-3M melanoma and in the experiment with SN12C renal was above 100 µM in each case. Further, the TGI in the experiment with TK-10 renal, in the experiment on DU-145 prostate, with UACC-257 melanoma and in the experiment on SK-MEL-2 melanoma was above 100 µM throughout.

As for `CCOC(=O)N1c2ccccc2C(C)=CC(C)C1C` (stereo not drawn), the TGI is above 100 µM in the experiment on UACC-62 melanoma; above 100 µM in the experiment on MCF7 breast; above 100 µM in the experiment on SK-MEL-28 melanoma; 69 µM in the experiment with SNB-75 CNS; above 100 µM with SK-OV-3 ovarian; 40.1 µM in the experiment on HCT-116 colon. Also, the TGI was above 100 µM in the experiment on MALME-3M melanoma; above 100 µM in the experiment on SN12C renal; 51 µM in the experiment with TK-10 renal; above 100 µM with SNB-19 CNS; above 100 µM with DU-145 prostate; 88.5 µM in the experiment on UACC-257 melanoma. In the experiment with SK-MEL-2 melanoma, the TGI was above 100 µM.

As to `CC(C)(C)OC(=O)Cn1ncn(NC(=O)Cc2ccccc2)c1=S`, the TGI with UACC-62 melanoma, in the experiment on MCF7 breast, with SK-MEL-28 melanoma, in the experiment with SNB-75 CNS, with SK-OV-3 ovarian and in the experiment on HCT-116 colon was above 10 µM in each case. Also, the TGI in the experiment on MALME-3M melanoma, in the experiment with SN12C renal, in the experiment with TK-10 renal, in the experiment on SNB-19 CNS, in the experiment with DU-145 prostate and in the experiment on UACC-257 melanoma was above 10 µM throughout.

Regarding `O=C(NNC(=O)c1ccco1)c1ccco1`, the TGI in the experiment on UACC-62 melanoma, in the experiment on MCF7 breast, with SK-MEL-28 melanoma, with SNB-75 CNS, in the experiment with SK-OV-3 ovarian and in the experiment with HCT-116 colon was above 100 µM in each case. For the same compound, the TGI in the experiment on MALME-3M melanoma, with SN12C renal, in the experiment with TK-10 renal, in the experiment with SNB-19 CNS, in the experiment with DU-145 prostate and with UACC-257 melanoma was above 100 µM each time. This compound also yielded a TGI with SK-MEL-2 melanoma above 100 µM.

For `Nc1nc(Sc2ccc([N+](=O)[O-])c3nonc23)c2[nH]cnc2n1`, the TGI is 11.2 µM in the experiment on UACC-62 melanoma; 12 µM with MCF7 breast; 22.3 µM with SK-MEL-28 melanoma; 12.2 µM with SNB-75 CNS; 9.95 µM in the experiment with SK-OV-3 ovarian; 3.89 µM with HCT-116 colon. In addition, the TGI was found to be 5.03 µM in the experiment with MALME-3M melanoma; 27.2 µM with SN12C renal; 6.4 µM with TK-10 renal; 31.4 µM in the experiment with SNB-19 CNS; 16.2 µM with DU-145 prostate; 9.14 µM with UACC-257 melanoma. This compound also gave a TGI in the experiment on SK-MEL-2 melanoma of 6.32 µM.

`CC1(C)N=C(C(N)=O)c2[nH]cnc2N1`: the TGI with UACC-62 melanoma, in the experiment with MCF7 breast, in the experiment with SK-MEL-28 melanoma, in the experiment with SNB-75 CNS, with SK-OV-3 ovarian and in the experiment with HCT-116 colon was above 100 µM throughout. The TGI with MALME-3M melanoma, in the experiment on SN12C renal, with TK-10 renal, with SNB-19 CNS, in the experiment with DU-145 prostate and in the experiment with UACC-257 melanoma was above 100 µM each time. This compound displayed a TGI with SK-MEL-2 melanoma above 100 µM.

These data come from PubChem BioAssay (NCI).
